According to DBAASP:
Converted amounts (≈) assume the structure as drawn. One block for each molecule: values may come before it.

Key:
Experiment in all cases: ≥ marks a high value that may be exact or a test limit, other limits are often not marked, values filed in µg/mL are converted to µM
[1] = tested on: Bacillus subtilis ATCC 6633
[2] = tested on: Enterococcus faecalis ATCC 12953
[3] = tested on: Escherichia coli ATCC 8739
[4] = tested on: Klebsiella pneumoniae ATCC 13885
[5] = tested on: Proteus mirabilis ATCC 25933
[6] = tested on: Pseudomonas aeruginosa ATCC 15442
[7] = tested on: Salmonella enterica subsp. enterica serovar Typhimurium ATCC 14028
[8] = tested on: Staphylococcus aureus ATCC 29213
[9] = tested on: Streptococcus pyogenes ATCC 19615
[10] = tested on: Aspergillus flavus KCTC 1375
[11] = tested on: Candida albicans ATCC 90028
[12] = tested on: Enterococcus faecium ATCC 19434
[13] = tested on: Enterococcus faecium
[14] = tested on: Escherichia coli O157:H7 ATCC 43895
[15] = tested on: Escherichia coli
[16] = tested on: Malassezia furfur KCTC 7744
[17] = tested on: Pseudomonas aeruginosa ATCC 27853
[18] = tested on: Pseudomonas aeruginosa
[19] = tested on: Staphylococcus aureus ATCC 25923
[20] = tested on: Staphylococcus aureus
[21] = tested on: Acinetobacter baumannii ATCC 19606
[22] = tested on: Acinetobacter junii RT-4
[23] = tested on: Bacillus megaterium Bm11
[24] = tested on: Candida albicans ATCC 10231
[25] = tested on: Enterococcus faecalis ATCC 29212
[26] = tested on: Escherichia coli ATCC 25922
[27] = tested on: Escherichia coli D21
[28] = tested on: Pseudomonas aeruginosa ATCC 15692
[29] = tested on: Pseudomonas syringae pv. tabaci 1918NCPPB
[30] = tested on: Saccharomyces cerevisiae
[31] = tested on: Schizosaccharomyces pombe
[32] = tested on: Staphylococcus aureus Cowan 1
[33] = tested on: Staphylococcus capitis 1
[34] = tested on: Staphylococcus epidermidis ATCC 12228
[35] = tested on: Streptococcus pyogenes ATCC 21547
[36] = tested on: Yersinia pseudotuberculosis YPIII
[37] = tested on: Candida albicans
[38] = tested on: Candida krusei ATCC 6258
[39] = tested on: Candida krusei
[40] = tested on: Candida parapsilosis ATCC 22019
[41] = tested on: Candida parapsilosis
[42] = tested on: Candida tropicalis B51a/5
[43] = tested on: Candida tropicalis
[44] = tested on: Enterobacter cloacae HNTCC 53001
[45] = tested on: Klebsiella pneumoniae KK3 9904
[46] = tested on: Staphylococcus epidermidis RP62A
[47] = tested on: Escherichia coli O157
[48] = tested on: Pseudomonas aeruginosa 1
[49] = tested on: Pseudomonas aeruginosa 2
[50] = tested on: Pseudomonas aeruginosa 5
[51] = tested on: Staphylococcus aureus 1
[52] = tested on: Staphylococcus aureus 4
[53] = tested on: Staphylococcus aureus 5

MIC [1]: ≥ 42.6 µM
MIC [2]: ≥ 42.6 µM
MIC [3]: 21.3 µM (≈ 32 µg/mL)
MIC [4]: 21.3 µM (≈ 32 µg/mL)
MIC [5]: ≥ 42.6 µM
MIC [6]: 21.3 µM (≈ 32 µg/mL)
MIC [7]: 42.6 µM (≈ 64 µg/mL)
MIC [8]: 42.6 µM (≈ 64 µg/mL)
MIC [9]: ≥ 42.6 µM
SMILES: CC[C@H](C)[C@H](N)C(=O)N[C@@H](CCCCN)C(=O)N[C@@H](Cc1ccccc1)C(=O)N[C@@H](CCC(=O)O)C(=O)N1CCC[C@H]1C(=O)N1CCC[C@H]1C(=O)N[C@@H](CC(C)C)C(=O)N1CCC[C@H]1C(=O)N1CCC[C@H]1C(=O)N[C@@H](CCCCN)C(=O)N[C@@H](CCCCN)C(=O)N[C@@H](C)C(=O)N[C@@H](Cc1cnc[nH]1)C(N)=O [IKFEPPLPPKKAH]

MIC [10]: 20 µM (≈ 48.2 µg/mL)
MIC [11]: 14.1 µM (≈ 34.1 µg/mL)
MIC [12]: 20 µM (≈ 48.2 µg/mL)
MIC [13]: 28.3 µM (≈ 68.2 µg/mL)
MIC [14]: 20 µM (≈ 48.2 µg/mL)
MIC [15]: 28.3 µM (≈ 68.2 µg/mL)
MIC [16]: 20 µM (≈ 48.2 µg/mL)
MIC [17]: 14.1 µM (≈ 34.1 µg/mL)
MIC [18]: 28.3 µM (≈ 68.2 µg/mL)
MIC [19]: 20 µM (≈ 48.2 µg/mL)
MIC [20]: 14.1 µM (≈ 34.1 µg/mL)
SMILES: CC(C)C[C@H](NC(=O)[C@H](Cc1ccc(O)cc1)NC(=O)[C@H](Cc1cnc[nH]1)NC(=O)[C@@H](NC(=O)[C@H](CC(C)C)NC(=O)[C@H](C)NC(=O)[C@H](C)NC(=O)[C@H](CCCCN)NC(=O)CNC(=O)[C@@H](NC(=O)[C@H](Cc1cnc[nH]1)NC(=O)[C@H](CCCCN)NC(=O)CNC(=O)[C@@H](NC(=O)[C@H](Cc1cnc[nH]1)NC(=O)[C@H](C)NC(=O)[C@H](C)NC(=O)[C@H](CCCCN)NC(=O)[C@H](CCCCN)NC(=O)[C@H](Cc1ccccc1)NC(=O)[C@H](Cc1ccccc1)NC(=O)[C@@H](N)CO)C(C)C)C(C)C)[C@@H](C)O)C(N)=O [SFFKKAAHVGKHVGKAALTHYL]

MIC [21]: 6 µM (≈ 10 µg/mL)
MIC [22]: 3 µM (≈ 5 µg/mL)
MIC [23]: 3 µM (≈ 5 µg/mL)
MIC [24]: 12 µM (≈ 20 µg/mL)
MIC [25]: 12 µM (≈ 20 µg/mL)
MIC [26]: 24 µM (≈ 40 µg/mL)
MIC [27]: 12 µM (≈ 20 µg/mL)
MIC [28]: 12 µM (≈ 20 µg/mL)
MIC [17]: 24 µM (≈ 40 µg/mL)
MIC [29]: 6 µM (≈ 10 µg/mL)
MIC [30]: 24 µM (≈ 40 µg/mL)
MIC [31]: 12 µM (≈ 20 µg/mL)
MIC [19]: 6 µM (≈ 10 µg/mL)
MIC [32]: 6 µM (≈ 10 µg/mL)
MIC [33]: 3 µM (≈ 5 µg/mL)
MIC [34]: 3 µM (≈ 5 µg/mL)
MIC [35]: 3 µM (≈ 5 µg/mL)
MIC [36]: 3 µM (≈ 5 µg/mL)
SMILES: CC[C@H](C)[C@H](NC(=O)[C@H](CCCN=C(N)N)NC(=O)CNC(=O)[C@H](CC(C)C)NC(=O)[C@H](Cc1ccccc1)NC(=O)[C@H](CCCCN)NC(=O)[C@H](CO)NC(=O)[C@H](Cc1ccccc1)NC(=O)[C@H](Cc1c[nH]c2ccccc12)NC(=O)[C@H](CCCN=C(N)N)NC(=O)[C@@H](NC(=O)[C@@H](N)Cc1ccccc1)C(C)C)C(=O)N[C@@H](CC(C)C)C(N)=O [FVRWFSKFLGRIL]

MIC [11]: 25 µM (≈ 64.4 µg/mL)
MIC [37]: 40 µM (≈ 103 µg/mL)
MIC [38]: ≥ 40 µM
MIC [39]: ≥ 40 µM
MIC [40]: ≥ 40 µM
MIC [41]: ≥ 40 µM
MIC [42]: 10 µM (≈ 25.8 µg/mL)
MIC [43]: 20 µM (≈ 51.5 µg/mL)
MIC [44]: ≥ 40 µM
MIC [25]: 20 µM (≈ 51.5 µg/mL)
MIC [26]: 50 µM (≈ 129 µg/mL)
MIC [45]: ≥ 40 µM
MIC [5]: ≥ 40 µM
MIC [17]: 40 µM (≈ 103 µg/mL)
MIC [19]: 3 µM (≈ 7.73 µg/mL)
MIC [46]: 5 µM (≈ 12.9 µg/mL)
SMILES: CC[C@H](C)[C@H](NC(=O)[C@@H]1CCCN1C(=O)[C@H](CC(C)C)NC(=O)[C@@H](N)Cc1ccccc1)C(=O)N[C@@H](CC(C)C)C(=O)N[C@@H](C)C(=O)N[C@@H](CO)C(=O)N[C@@H](CC(C)C)C(=O)N[C@@H](C)C(=O)N[C@@H](C)C(=O)N[C@@H](CCCCN)C(=O)N[C@@H](Cc1ccccc1)C(=O)NCC(=O)N1CCC[C@H]1C(=O)N[C@@H](CCCCN)C(=O)N[C@@H](CC(C)C)C(=O)N[C@@H](Cc1ccccc1)C(=O)N[C@@H](CO)C(=O)N[C@@H](CC(C)C)C(=O)N[C@H](C(=O)N[C@H](C(=O)N[C@@H](CCCCN)C(=O)N[C@@H](CCCCN)C(=O)N[C@@H](CO)C(=O)O)[C@@H](C)O)C(C)C [FLPILASLAAKFGPKLFSLVTKKS]

MIC [13]: 10 µM (≈ 11.6 µg/mL)
MIC [47]: 20 µM (≈ 23.1 µg/mL)
MIC [48]: 20 µM (≈ 23.1 µg/mL)
MIC [49]: 10 µM (≈ 11.6 µg/mL)
MIC [50]: 14.1 µM (≈ 16.4 µg/mL)
MIC [51]: 10 µM (≈ 11.6 µg/mL)
MIC [52]: 14.1 µM (≈ 16.4 µg/mL)
MIC [53]: ≥ 40 µM
MIC [20]: 20 µM (≈ 23.1 µg/mL)
SMILES: CC[C@H](C)[C@H](NC(=O)[C@H](CC(C)C)NC(=O)[C@H](CCCN=C(N)N)NC(=O)[C@@H](NC(=O)[C@H](C)NC(=O)[C@H](CCCCN)NC(=O)[C@H](CO)NC(=O)[C@H](CC(C)C)NC(=O)[C@@H](N)CCC(=O)O)C(C)C)C(=O)N[C@@H](CCCCN)C(=O)O [ELSKAVRLIK]
